# Legend:
# [1] = test system: enzymes in the synthesis of aldosterone; test: inhibition of enzymes in the synthesis of aldosterone (rat adrenal capsule/glomerulosa homogenates, [3H]-DOC substrate); type: biochemical, Sprague-Dawley rats; conditions: Conc 10 μM, 1 μM [3H]-DOC, 10-minute assay, 25° C., pH 7.4; for f moles/min/mg: buffer control 246
# Procedure: Young male Sprague-Dawley rats were maintained on a sodium-deficient diet for about two weeks prior to use. From these animals, adrenal capsule/glomerulose homogenates were prepared (6 mg/ml) in pH 7.4 assay buffer [MgCl2 8.5 mM, CaCl2 2.7 mM, KCl 3.13 mM, NaCl 7.591 mM, TRIS 50 mM and 0.1% triethylamine]and centrifuged 500xg for 10 minutes.
# Assays were conducted in 35 ml glass tubes maintained at 25° C. in a Dubnoff shaker with 95% O2 /5% CO2. The tubes contained the following material: 100 μl of an NADPH^+ generating system, 300 μl of adrenal capsular/glomerulosa cytosol, and 50 μl of test compound or buffer (control). After initial preincubation intervals of 20 minutes, the 10-minute assay was started by the addition of 50 μl of tritium-labelled substrate, i.e., 1 μM [^3 H]-DOC. Reactions were quenched by the addition of 5 ml of ethyl acetate and non-radiolabelled steroids were also added. The samples were extracted twice with 5 ml of ethyl acetate and the solvent evaporated under nitrogen at 30°-40° C.
# Residues were redissolved in methanol:water (40:60) with 0.1% triethylamine and high performance liquid chromatography was used to separate products on a Cl8 reverse phase (5 μ ODS-Hypersil) column (4.6×250 mm, Shannon) with a 1 ml/min flow rate using an MeOH:H2 O gradient (solvent A 10/90:solvent B 90/10).
# Unchanged substrate and products formed were monitored by UV absorbance at 246 nm and the amount of steroid compound present was quantified by [^3 H]radioactivity. Using this procedure, the following results were observed: […]
# rabbits [2] = conditions: Auel et al.; cited from earlier work
# rabbits [3] = conditions: Auel et al.; cited from earlier work; remark: listed apart in the source
SMILES,% Inhibition [1],f moles/min/mg [1],pharmacological activity in the Clauberg test (rabbits [2]),pharmacological activity in the anti-Clauberg test (rabbits [3])
"CC(=O)[C@H]1CC[C@H]2[C@@H]3CCC4=CC(=O)CC[C@]4(C)[C@H]3CC[C@]12CC#N [3,20-Dioxopregn-4-ene-18-carbonitrile]",52.5%,117 f moles/min/mg,inactive,inactive
"CC(=O)[C@H]1CC[C@H]2[C@@H]3CCC4=CC(=O)CC[C@]4(C)[C@H]3[C@@H](O)C[C@]12CC#N [11β-Hydroxy-3,20-dioxopregn-4-ene-18-carbonitrile]",33.3%,164 f moles/min/mg,–,–
